The results in this text go back to patent EP3118219A1, “NICOTINIC CHANNEL SUBUNITS OF […] AND THEIR USES THEREOF” (priority 2015, dated 2017).

For test [1], the target named is T1, Apis mellifera nicotinic acetylcholine receptor Am-nAChRα7 (nAChR α7 subunit, SEQ ID NO: 7), expressed with ric3 (Apis mellifera, UniProt A0ACM8Q2V8).
T1 sequence (A0ACM8Q2V8 21-555): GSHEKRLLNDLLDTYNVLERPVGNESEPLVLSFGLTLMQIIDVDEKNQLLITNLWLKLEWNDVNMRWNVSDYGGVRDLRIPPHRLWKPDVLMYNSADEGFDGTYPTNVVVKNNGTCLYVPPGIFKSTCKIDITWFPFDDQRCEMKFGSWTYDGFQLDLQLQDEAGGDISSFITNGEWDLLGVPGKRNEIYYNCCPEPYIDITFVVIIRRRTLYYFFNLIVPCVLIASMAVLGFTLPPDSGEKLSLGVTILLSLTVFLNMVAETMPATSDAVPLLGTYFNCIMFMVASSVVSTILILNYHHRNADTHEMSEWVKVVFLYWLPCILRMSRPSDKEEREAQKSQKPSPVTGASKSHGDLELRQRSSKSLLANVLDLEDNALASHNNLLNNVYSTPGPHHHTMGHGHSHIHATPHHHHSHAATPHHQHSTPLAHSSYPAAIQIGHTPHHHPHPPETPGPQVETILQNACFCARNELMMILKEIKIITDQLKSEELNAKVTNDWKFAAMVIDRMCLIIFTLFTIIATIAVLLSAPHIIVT
The test can be described thus: Two-electrode voltage-clamp dose-response on Xenopus laevis oocytes expressing the nAChRα7 subunit (with ric3). The format is cell-based. The procedure: (§1) For example, ric3 (from C.elegans, the nucleic acid sequence being SEQ ID NO: 64 and the amino acid sequence being SEQ ID NO: 65, or honeybee) is clearly necessary to get a reliable expression of the nAChR α7 subunit and a response to ACh, while for the nAChRα5 subunit a cocktail of emc6, unc50 and unc74 chaperone proteins improves expression with response amplitude between 0.1 to several µA for ACh concentration between 1 to 1000µM (Figure 2). In the case of the nAChRα3 subunits, expression can be obtain either alone, or in combination with different cocktails of chaperone or with the vertebrate β2 nAChR subunits. Each of these combinations has a specific affinity for ACh. […]
(§2) Typically, an oocyte, injected 2 to 5 days before with a given mixture of RNA is placed in the recording chamber filled with the desired solution (usually Na100). […] Both electrodes are then impaled into the oocyte and the resting membrane potential is measured (typically -30/- 50 mV). […] Sometime, the effect of a test compound can be determined directly, by applying 50 µl of the compound directly to the bath (with the main perfusion stopped) at the final working concentration (usually 100-1000 µM), after proper dilution from a stock solution (usually 10 mM in water or DMSO or ethanol) into the desired recording solution. […]
On the technique in general: Two-electrode voltage clamp is typically applied to oocytes expressing channels or transporters.

The subject of test [2] is Apis mellifera nicotinic acetylcholine receptor Am-nAChRα5 (nAChRα5 subunit, SEQ ID NO: 5), expressed with unc74+unc50+emc6. Briefly: Two-electrode voltage-clamp dose-response on Xenopus laevis oocytes expressing the nAChRα5 subunit (with unc74+unc50+emc6). The format is cell-based. Particulars: current in Xenopus oocytes, dose-response curve; traces at 500 µM (Figure 4). The procedure: as §1, §2

The structures appear in SMILES notation.

As a reminder, the EC50 is the concentration giving half of the maximal effect. As to `CN/C(=N\[N+](=O)[O-])NCc1cnc(Cl)s1` [clothianidin], the EC50 in test [1] is around 10 µM. Also, the “agonist efficacy compared with ACh” value in test [1] (dose-response curves of ACh and clothianidin recorded on the same oocyte (Figure 4C)) is “less effective agonist than ACh”. Further, the sensitivity to clothianidin entry in test [2] was “completely insensitive”.
